Experimental data reported in patent publication US20190365762A1, “MEDICINAL COMPOSITION INHIBITING NEOVASCULARIZATION PROLIFERATION FACTOR” (KYOTO UNIVERSITY, priority 2014, published 2019).
“Also recorded” adds a separate entry of the source.

Columns and labels:
[1] = tested on: retinal neovascularization; conditions: Nowak D G, Bates D O et al., J. Bio. Chem. 2010; cited from earlier work
[2] = see WO 2005/063293; cited from earlier work
SRPK (kinase) = conditions: see WO 2005/063293; cited from earlier work
[3] = tested on: model mice with choroidal neovascularization (CNV); test: CNV formation in laser-induced CNV model mice, intravitreal injection (Experiments 2 and 3); format: in vivo; conditions: for CNV formation (area of CNV): 20 pmol intraocularly injected immediately after laser irradiation, 7 days, C57B/6J mice, FIG. 2
Protocol: [Experiment 2: Evaluation of Effect of Inhibiting CNV Formation by Compounds 1 to 3]
The synthesized compounds 1 to 3 and the above reference compound were administered to model mice with choroidal neovascularization (CNV) by intravitreal injection, and the CNV inhibition was evaluated. The details of the experiment are as follows. FIG. 2 illustrates the results.
100 mg/kg of ketamine and 10 mg/kg of xylazine were intraperitoneally injected into 6- to 8-week-old C57B/6J mice (Japan SLC, Inc.), and the mice were placed under anesthesia. Then, eyedrops (SANDOL P) containing tropicamide (5 mg/ml) and phenylephrine (5 mg/ml) were used to dilate the pupil. Any four points of the fundus were irradiated with a 532 nm argon laser (100 mW, 0.1 s, 75 μm) to form new blood vessels. The compound (20 pmol) was intraocularly injected immediately after the laser irradiation, and an ofloxacin (Tarivid) ophthalmic ointment was applied to the corneal surface to prevent infection and drying.
100 mg/kg of ketamine and 10 mg/kg of xylazine were intraperitoneally injected into the mice after 7 days had passed from the laser irradiation, and the mice were placed under anesthesia. Then, the mice underwent thoracotomy and were perfused with FITC-dextran (50 mg/ml; Life Technologies Japan Ltd.) through the left ventricle. After the perfusion, the eyes were enucleated and fixed in 4% paraformaldehyde. After the fixation, the corneas, crystalline lenses, and retinas were removed, and the flat mount of the choroid was obtained. CNV was imaged with a fluorescence microscope (BZ-9000; Keyence Corporation) so that the area of the CNV was measured.
An experiment was performed in the same manner as Experiment 2 by administering the compound 2 at different concentrations (0.2 µM, 2 µM, 20 µM), and the CNV inhibition was evaluated. FIG. 3 illustrates the results.

[4] = tested on: vascular endothelial growth factor (VEGF); test: VEGF protein in culture medium of ARPE-19 cells by ELISA (Experiment 1); format: cell-based, human; conditions: compound 10 μM, TGF-β 1 nM, 72 hours, FIG. 1
Protocol: [Experiment 1: Evaluation of Effect of Inhibiting VEGF Expression by Compounds 1 to 3]
The synthesized compounds 1 to 3 and the following reference compound were administered to human retinal pigment epithelial cells (ARPE-19 cell line). After 3 days of cultivation, each culture medium was subjected to ELISA to determine a vascular endothelial growth factor (VEGF). The details of the experiment are as follows. FIG. 1 illustrates the results.
A retinal pigment epithelial cell line, i.e., ARPE-19 was used. The ARPE-19 was cultured in Ham's F-12/DMEM medium containing 10% fetal bovine serum and 1% penicillin-streptomycin solution. The cells were seeded on a 24 well plate at 1.0×10^4 cell/well. On the next day, the culture medium was replaced with 1% fetal bovine serum. Further, the culture medium was removed 24 hours later and replaced with a culture medium (containing 1% fetal bovine serum) to which the compound (10 μM) and TGF-β (1 nM) were added. The culture medium was replaced every 24 hours in the same manner. Then, the culture medium was collected after 72 hours had passed from the administration of the compound. An ELISA kit (manufactured by R&D Systems, Inc.) was used to measure the amount of VEGF protein in the culture medium. The absorbance was measured by an ARVO X5 multiplate reader.

[5] = tested on: model mice with choroidal neovascularization (CNV); test: CNV formation in CNV model mice, ophthalmic ointment (Experiment 4); format: in vivo; conditions: ophthalmic ointment with 10 g compound 2 per 100 g, 7 μL three times a day, versus base material only, FIG. 4
Protocol: [Experiment 4: Preparation of Ophthalmic Ointment and Evaluation of Effect of Inhibiting CNV Formation by Using the Ophthalmic Ointment]
An ophthalmic ointment with the following composition was prepared.
60 g of liquid paraffin; and
30 g of white petrolatum.
An experiment was performed in the same manner as Experiment 2 except that the ophthalmic ointment was applied in a dose of 7 μL three times a day, instead of the intravitreal injection, and the CNV inhibition was evaluated. Moreover, an ophthalmic ointment containing only a base material was used as a control, and the same experiment was performed. FIG. 4 illustrates the results. A of FIG. 4 is a graph that indicates the area of CNV.

melting point	Compound	retinal neovascularization [1]	antiviral activity [2]	SRPK (kinase) inhibition (SRPK (kinase))	CNV formation (area of CNV) [3]	concentration dependence of reduction of CNV formation ([3]; intravitreal injection, FIG. 3)	amount of VEGF protein in the culture medium [4]	CNV formation (area of CNV) [5]
	O=C(Nc1cc(C(F)(F)F)ccc1N1CCCCC1)c1ccncc1 [reference compound]	suppress retinal neovascularization	has antiviral activity	inhibits SRPK				
224 to 225 °C	COc1cc(/C=C2\C(=N)N3N=C(C(F)(F)F)SC3=NC2=O)ccc1O [compound 2, 6-(4-hydroxy-3-methoxybenzylidene)-5-imino-2-(trifluoromethyl)-5,6-dihydro-7H-[1,3,4]thiadiazolo[3,2-a]pyrimidin-7-one]				significant; also recorded: more prominent	reduced the CNV formation in a concentration-dependent manner	particularly significant	reduced the CNV formation
260 °C (dec.)	COc1cc(/C=C2/C(=O)NN(c3ccc(Cl)c(Cl)c3)C2=O)ccc1O [compound 1, 1-(3,4-dichlorophenyl)-4-(4-hydroxy-3-methoxybenzylidene)pyrazolidine-3,5-dione]				significant			
